Source: ChEMBL document CHEMBL1153894, “Chloroquine-astemizole hybrids with potent in vitro and in vivo antiplasmodial activity” (Bioorg Med Chem Lett, 2009)

Experiments:
[1] = test system: Plasmodium falciparum; assay: Antiplasmodial activity against chloroquine-resistant Plasmodium falciparum K1; assay type: functional, organism-based
[2] = Selectivity ratio of cytotoxicity for rat L6 cells to IC50 for Plasmodium falciparum K1; assay type: cell-based; details: read-out: FC
[3] = test system: L6; assay: Cytotoxicity against rat L6 cells; assay type: cell-based
[4] = test system: Plasmodium berghei; assay: Antiplasmodial activity as reduced parasitaemia against Plasmodium berghei infected mice (Mus musculus) at 4 x 20 mg/kg intraperitoneal dose; assay type: functional; design: scale not given: the % may be the effect or the level left
[5] = test system: Plasmodium berghei; assay: Antiplasmodial activity as mean survival time against Plasmodium berghei infected mice (Mus musculus) at 4 x 20 mg/kg intraperitoneal dose; assay type: functional
[6] = test system: Plasmodium berghei; assay: Antiplasmodial activity as reduced parasitaemia against Plasmodium berghei infected mice (Mus musculus) at 4 x 10 mg/kg intraperitoneal dose; assay type: functional; design: scale not given: the % may be the effect or the level left
[7] = test system: Plasmodium berghei; assay: Antiplasmodial activity as reduced parasitaemia against Plasmodium berghei infected mice (Mus musculus) at 4 x 50 mg/kg intraperitoneal dose; assay type: functional; design: scale not given: the % may be the effect or the level left
[8] = test system: Plasmodium berghei; assay: Antiplasmodial activity as mean survival time against Plasmodium berghei infected mice (Mus musculus) at 4 x 50 mg/kg intraperitoneal dose; assay type: functional
[9] = test system: Plasmodium berghei; assay: Antiplasmodial activity as mean survival time against Plasmodium berghei infected mice (Mus musculus) at 4 x 10 mg/kg intraperitoneal dose; assay type: functional
[10] = test system: Plasmodium falciparum; assay: Antiplasmodial activity against chloroquine-resistant Plasmodium falciparum K1 at 5 uM; assay type: functional

Row | Compound | IC50 [1] [nM] | selectivity ratio [2] | Activity [3] [µM] | Activity [4] [%] | MST [5] [days] | Activity [6] [%] | Activity [7] [%] | MST [8] [days] | MST [9] [days] | Activity [10] [%]
1 | Fc1ccc(Cn2c(N3CCN(CCCNc4ccnc5cc(Cl)ccc45)CC3)nc3ccccc32)cc1 | 23 | > 100 | 6.86 | – | – | – | – | – | – | –
2 | Fc1ccc(Cn2c(N3CCC(Nc4ccnc5cc(Cl)ccc45)CC3)nc3ccccc32)cc1 | 64 | > 100 | 9.1 | – | – | – | – | – | – | –
3 | Fc1ccc(Cn2c(NC3CCN(c4ccnc5cc(Cl)ccc45)CC3)nc3ccccc32)cc1 | 37 | > 100 | 8.8 | 80 | 8 | 99 | 99 | 13 | 17 | –
4 | Fc1ccc(Cn2c(N3CCN(c4ccnc5cc(Cl)ccc45)CC3)nc3ccccc32)cc1 | 610 | > 100 | 126 | – | – | – | – | – | – | –
5 | COc1ccc(CCN2CCC(Nc3nc4ccccc4n3Cc3ccc(F)cc3)CC2)cc1 [ASTEMIZOLE] | – | > 100 | – | – | – | – | – | – | – | 50
